One assay has as its system Brain Dopamine Synthesis. Kind of assay: Reversal of brain dopamine synthesis in rats (inhibition of dopamine synthesis). As to conditions: at 10 mg/kg, IP. The format is in vivo. How it is done: (§1) The compounds of Formula I are valuable dopaminergic agents. […] Thus, the compounds of Formula I were tested for their ability to inhibit locomotor activity in mice according to the assay described by J. R. McLean, et al, Pharmacology, Biochemistry and Behavior, Volume 8, pages 97-99 (1978); for their ability to inhibit [^3 H]spiroperidol binding in a receptor assay described by D. Grigoriadis and P. Seeman, Journal of Neurochemistry, Volume 44, pages 1925-1935 (1985); and for their ability to inhibit dopamine synthesis in rats according to the protocol described by J. R. Walters and R. H. Roth, Naunyn-Schmiedeberg's Archives of Pharmacology, Volume 296, pages 5-14 (1976). The above test methods are incorporated herein by reference. The data in the table show the dopaminergic activity of representative compounds of Formula I.

Assay [1] has as its target T1, [^3 H]Spiroperidol Binding (Homo sapiens, UniProt P14416).
T1 construct: from tissue; host or cells: brain (striatum) membranes
Kind of assay: Inhibition of [^3 H]spiroperidol binding in a receptor assay. How it is done:
as §1

The test system of assay [2] is Locomotor Activity in Mice. In words: Inhibition of locomotor activity in mice. The class given is in vivo. As to conditions: Mus musculus, IP. An excerpt: The above test methods are incorporated herein by reference.

T1 sequence (P14416 whole entry): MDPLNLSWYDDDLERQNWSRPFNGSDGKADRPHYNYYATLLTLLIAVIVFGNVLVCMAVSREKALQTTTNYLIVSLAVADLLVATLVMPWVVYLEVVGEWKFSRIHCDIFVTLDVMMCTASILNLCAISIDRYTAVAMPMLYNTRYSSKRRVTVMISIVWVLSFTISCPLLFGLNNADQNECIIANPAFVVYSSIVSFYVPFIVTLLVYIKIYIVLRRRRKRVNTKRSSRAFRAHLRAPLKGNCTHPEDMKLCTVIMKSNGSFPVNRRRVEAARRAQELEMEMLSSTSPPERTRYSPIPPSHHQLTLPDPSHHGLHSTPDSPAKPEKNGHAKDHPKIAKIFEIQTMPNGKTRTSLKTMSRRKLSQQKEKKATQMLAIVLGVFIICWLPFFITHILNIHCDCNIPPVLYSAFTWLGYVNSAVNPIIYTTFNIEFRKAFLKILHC

As for `O=C(CCCN1CCN(c2ccccn2)CC1)c1cccnc1` [Example 2, 1-(3-Pyridinyl)-4-[4-(2-pyridinyl)-1-piperazinyl]-1-butanone], the “% Reversal of Brain Dopamine Synthesis in Rats” value (“% Reversal” below) with Brain Dopamine Synthesis was 43%. Further, in assay [1], the IC50 was 2870 nM. Further, the 50% effect level in assay [2] (ED50) was put at a dose of 6.3 mg/kg.
`O=C(CCCN1CCN(c2ccccn2)CC1)c1ccnc2ccccc12` [Example 7, 1-(4-Quinolinyl)-4-[4-(2-pyridinyl)-1-piperazinyl]-1-butanone] showed a 50% effective dose (ED50) in assay [2] of 13 mg/kg.
With `c1ccc(N2CCN(CCCCc3cnc4ccccc4c3)CC2)nc1` [Example 11], the “% Reversal” value in the assay on Brain Dopamine Synthesis was found to be 100%. In addition, the IC50 in assay [1] turned out to be 155 nM. This compound also had an ED50 in assay [2] of 2.2 mg/kg.
Compound `c1ccc(N2CCN(CCCc3cccnc3)CC2)nc1` [Example 1, 1-(2-Pyridinyl)-4-[3-(3-pyridinyl)propyl]piperazine] came in with an ED50 in assay [2] of 3.1 mg/kg.
Regarding `c1cnc(N2CCN(CCCCc3ccncc3)CC2)nc1` [Example 10, 2-[4-[4-(4-Pyridinyl)butyl]-1-piperazinyl]pyrimidine], the “% Reversal” value in the assay on Brain Dopamine Synthesis was 35%. In assay [1], this compound gave an IC50 of 4180 nM. Besides, the ED50 in assay [2] stood at 10.1 mg/kg.
With `c1cnc(N2CCN(CCCCc3cnc4ccccc4c3)CC2)nc1` [Example 12, 3-[4-[4-(2-Pyrimidinyl)-1-piperazinyl]butyl]quinoline], in assay [2], it took a dose of 1.2 mg/kg to reach the 50% effect level (ED50).
Turning to `O=C(CCCN1CCN(c2ccccn2)CC1)c1cnc2ccccc2c1` [Example 6, 1-(3-Quinolinyl)-4-[4-(2-pyridinyl)-1-(piperazinyl)]-1-butanone], the half-inhibitory concentration (IC50) in assay [1] was determined as 486 nM. In assay [2], this compound came in with an ED50 of 2.8 mg/kg.
On to `O=C(CCCN1CCN(c2ccccn2)CC1)c1ccncc1` [Example 4, 1-(4-Pyridinyl)-4-[4-(2-pyridinyl)-1-piperazinyl]-1-butanone], for which the “% Reversal” value in the assay on Brain Dopamine Synthesis turned out to be 35%. The compound also yielded an IC50 in assay [1] of 2130 nM. This compound also yielded an ED50 in assay [2] of 7.6 mg/kg.
Turning to `c1ccc(N2CCN(CCCCc3cccnc3)CC2)nc1` [Example 8, 1-(2-Pyridinyl)-4-[4-(3-pyridinyl)butyl]piperazine], the “% Reversal” value with Brain Dopamine Synthesis was 67%. In assay [2], this compound had an ED50 of 2.7 mg/kg.
The compound `c1ccc(N2CCN(CCCCc3ccnc4ccccc34)CC2)nc1` [Example 13, 4-[4-[4-(2-Pyridinyl)-1-piperazinyl]butyl]quinoline] came in with an IC50 in assay [1] of 279 nM. This compound also had a 50% effective dose (ED50) in assay [2] of 3.2 mg/kg.
On to `c1ccc(N2CCN(CCCCc3ccncc3)CC2)nc1` [Example 9], for which the “% Reversal” value in the assay with Brain Dopamine Synthesis amounted to 79%. Besides, in assay [1], the IC50 was determined as 835 nM. For the same compound, in assay [2], the 50% effect level (ED50) was put at a dose of 4 mg/kg.

By IC50 is commonly meant the point on the concentration scale where inhibition reaches its midpoint. Low values mean higher potency, high ones lower potency. Broadly, the ED50 is the midpoint of the dose-response relation. Low readings indicate greater potency, high ones weaker potency.

Source of the values: patent US5089497A, “Substituted piperazines as central nervous system agents” (Warner-Lambert Company, priority 1990, dated 1992).
